Reference: patent US20240115711A1, “Novel Bifunctional Molecules For Targeted Protein Degradation” (Amphista Therapeutics Limited, priority 2020, published 2024)

Target: T1, mutant EGFR (L858R) (Homo sapiens, UniProt P00533, L858R/T790M)
T1 construct: endogenous in cells; host or cells: NCI-H1975
Assay: Assay 8 - Degradation of mutant EGFR by immunoblot (NCI-H1975 cells)
Assay type: cell-based
Settings: after 24 h treatment with 1000 nM
Description: 1.8 Assay 8—Degradation of Mutant EGFR by Immunoblot.
NCI-H1975 (1.5×10^5) cells were seeded in 12-well plates (1 mL medium) overnight prior to 24 h treatment with test compounds at the desired concentration (DMSO final concentration 0.1%). After 24 h incubation, cells were washed with PBS and lysed with RIPA buffer (Sigma) supplemented with 1× protease inhibitor cocktail (Roche) and 1 U/mL Benzonase (Merck). Lysates were clarified by centrifugation (17,000×g, 20 min, 4° C.) and the total protein content of the supernatant was quantified using a BCA assay. Samples were prepared using equal amounts of total protein and LDS sample buffer (Invitrogen). […] Blots were visualised using a Bio-Rad ChemiDoc MP Imaging System, and band quantification was performed using Image Studio software (LiCor). […] Degradation data was plotted and analysed using Prism (Graphpad, version 8).
The degradation of target protein mutant EGFR (L858R) was detected according to the procedure outlined in assay 8 for the compound A67.

T1 sequence (P00533 25-1210 T790M/L858R): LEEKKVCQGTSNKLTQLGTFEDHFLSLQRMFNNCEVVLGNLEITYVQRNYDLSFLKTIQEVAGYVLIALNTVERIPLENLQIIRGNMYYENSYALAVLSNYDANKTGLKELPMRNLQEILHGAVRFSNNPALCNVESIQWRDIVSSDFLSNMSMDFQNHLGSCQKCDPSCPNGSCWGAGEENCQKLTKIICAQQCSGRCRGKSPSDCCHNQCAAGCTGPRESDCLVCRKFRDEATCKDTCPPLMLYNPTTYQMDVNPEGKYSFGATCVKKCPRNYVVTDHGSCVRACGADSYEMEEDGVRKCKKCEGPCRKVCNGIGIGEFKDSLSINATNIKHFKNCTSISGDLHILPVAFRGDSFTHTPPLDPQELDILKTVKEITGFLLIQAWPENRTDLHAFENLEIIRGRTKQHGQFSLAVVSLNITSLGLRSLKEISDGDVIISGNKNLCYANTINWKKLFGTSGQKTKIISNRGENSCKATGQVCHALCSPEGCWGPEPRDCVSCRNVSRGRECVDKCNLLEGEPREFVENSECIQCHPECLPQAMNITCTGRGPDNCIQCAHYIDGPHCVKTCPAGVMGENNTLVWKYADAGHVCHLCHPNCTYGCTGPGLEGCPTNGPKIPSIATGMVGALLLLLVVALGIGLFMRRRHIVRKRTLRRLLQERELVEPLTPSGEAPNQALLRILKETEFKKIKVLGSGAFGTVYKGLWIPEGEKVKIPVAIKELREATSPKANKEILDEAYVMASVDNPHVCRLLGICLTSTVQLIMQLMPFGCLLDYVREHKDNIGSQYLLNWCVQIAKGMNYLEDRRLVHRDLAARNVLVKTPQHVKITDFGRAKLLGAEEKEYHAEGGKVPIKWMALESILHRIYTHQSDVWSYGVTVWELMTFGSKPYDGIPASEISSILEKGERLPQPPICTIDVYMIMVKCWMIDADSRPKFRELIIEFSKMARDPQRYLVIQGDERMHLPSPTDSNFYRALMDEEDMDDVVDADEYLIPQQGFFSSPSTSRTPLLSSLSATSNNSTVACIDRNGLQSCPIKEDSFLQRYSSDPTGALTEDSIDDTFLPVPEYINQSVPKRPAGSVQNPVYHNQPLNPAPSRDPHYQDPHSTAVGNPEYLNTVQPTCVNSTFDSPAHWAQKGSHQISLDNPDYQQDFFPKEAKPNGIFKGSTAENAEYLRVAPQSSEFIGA

- residual EGFR (L858R) abundance: less than 50%
Compound: CCCC(c1ccc(CCC(=O)NCCCN2CCN(CCCNC(=O)c3nn(C(C)C)c4cc(Nc5ccnc(N6CCC(OC)CC6)n5)ncc34)CC2)cc1)N(C)C(=O)/C(C#N)=C/c1nccs1 (stereo not shown) [Example A67, (E)-N-(3-(4-(3-(3-(4-(1-(2-cyano-N-methyl-3-(thiazol-2-yl)acrylamido)butyl)phenyl)propanamido)propyl)piperazin-1-yl)propyl)-1-isopropyl-6-((2-(4-methoxypiperidin-1-yl)pyrimidin-4-yl)amino)-1H-pyrazolo[4,3-c]pyridine-3-carboxamide]
